Results published in patent US12011441B2, “Pimobendan for the reduction of heart size and/or the delay of onset of clinical symptoms in patients with asymptomatic heart failure due to mitral valve disease” (Boehringer Ingelheim Vetmedica GmbH, priority 2016, dated 2024).

Tested on: dogs with MMVD and echocardiographic and radiographic evidence of cardiomegaly
Source text: Vertebral heart sum, another measure of heart size, was obtained at regular intervals—every eight months—from those animals that remained in the study. There are various ways in which this can be compared between groups. The most useful way to summarise and compare the average vertebral heart score in each group for the duration of the study is to generate an “area under the curve” value that represents a single summary statistic for each dog from which more than two measurements were obtained [Matthews J N et al., BMJ 1990, 300(6719): 230-235]. This method has been used previously in veterinary studies [Häggström J et al., J Vet Intern Med 2013, 27(6): 1441-1451].

## COc1ccc(-c2nc3ccc(C4=NNC(=O)CC4C)cc3[nH]2)cc1 (centres unmarked) [pimobendan, 4,5-dihydro-6-[2-(4-methoxyphenyl)-1H-benzimidazol-5-yl]-5-methyl-3(2H)-pyridazinone]
Average vertebral heart score over the duration of the study, placebo 11.90, P = 0.0009
  VHS Median: 11.54
Averaged over the entire duration of the study (area under the curve), dogs remaining in the study
  difference in median vertebral heart score vs placebo: approximately 0.35 vertebrae
dog, in vivo
  rate or type of potential adverse events observed: no difference between groups
  safety and tolerability: safe and well tolerated
Measured over the first 35 days of the study, P<0.0001
  heart size compared to the placebo group: reduction in heart size
